Patent US20050004017A1, “Methods and compositions for treating hcap associated diseases” (priority 2001, published 2005)

Tested on: HCAP interaction with ErbB-2
Assay: Co-immunoprecipitation of HCAP with anti-ErbB-2 antibody from radicicol-treated T47D cells
Format: cell-based
Conditions: T47D cells treated with radicicol (3 μM) for 0, 3 or 6 hours; gel electrophoresis, bands identified by mass spectroscopy
Experimental: Band numbers 30 and 35 were identified by mass spectroscopic analysis as hepatocellular associated protein (HCAP). […] T47D cells, a breast cancer cell line that is mutant for the p53 tumor suppressor gene and ErbB-2 positive, were treated with radicicol (RA) for 0, 3 or 6 hours, and then proteins were immunoprecipitated using an anti-ErbB-2 antibody and resolved by gel electrophoresis. […] Band nos. 30 and 35 were identified by mass spectroscopic analysis to be hepatocarcinoma associated protein (HCAP). The amount of HCAP immunoprecipitated with anti-ErbB-2 antibody decreased in the presence of RA.

C[C@@H]1C[C@H]2O[C@@H]2/C=C\C=C\C(=O)Cc2c(Cl)c(O)cc(O)c2C(=O)O1 [radicicol, Radicicol]
amount of HCAP immunoprecipitated with anti-ErbB-2 antibody: decreased
